Test results: patent US5244916A, “Inhibition of respiratory burst using posttranslational modification inhibitors” (The Scripps Research Institute, priority 1992, dated 1993)

Key:
[1] = system: HL-60 cells (NADPH oxidase / respiratory burst); assay: Prevention of compactin-inhibition of FMLP-stimulated O2- formation in HL-60 cells by mevalonic acid and other supplements; assay type: cell-based; conditions: for block in NADPH oxidase activity / cellular responsiveness after supplementation: compactin-treated HL-60 cells, exogenous supplement
Protocol: (§1) HL-60 cells were maintained in stationary culture in RPMI 1640 medium (Gibco, Grand Island, NY) containing 10% fetal bovine serum at 37° C in an atmosphere of 95 air and 5% CO2. The cells (about 8×10^5 /ml) were differentiated into neutrophil-like cells by treatment with 1.3% DMSO for six days (Harris, et al., J. Leukocyte Biol. 37: 407-422 (1985)). The cells were treated with the indicated levels of compactin or lovastatin by addition of a 1,000-fold concentrated stock solution to the appropriate concentration on day 4 of differentiation. […] In studies of the protective effect of mevalonic acid, the compound was added as the mevalonolactone (Sigma Chemical Co., St. Louis, MO) at a concentration of 1 mM to the cell culture on days 4 to 6. Similarly, cholesterol was added in the form of LDL prepared according to the method of Curtiss and Edgington (Curtiss, et al., J. Biol. Chem. 257: 15213-15221 (1991)) at a final concentration of 50 μg/ml; ubiquinone (Sigma Chemical Co., St. Louis, MO) was added as Coenzyme Q-10 at a final concentration of 0.5 mM; and dolichol (Sigma Chemical Co., St. Louis, MO) was added as a dispersion in phosphatidylcholine at a final concentration of 0.5 mM (Cutts, et al., J. Cell Physiol. 139: 550-555 (1989)).
O2 --formation by HL-60 cells was assessed by the SOD-sensitive reduction of cytochrome c. Cells were suspended at 1×10^7 /ml in Krebs-Ringer Hepes buffer with 5.5 mM glucose (KRHG) and 50-100μl of cells were added to a cuvette containing 100 μM cytochrome c (type III, Sigma Chemical Co., St. Louis, MO), ±300 μg/ml SOD (Sigma Chemical Co., St. Louis, MO) in 700-750 μl KRHG. Cytochalasin b (Sigma Chemical Co., St. Louis, MO) was added to a final concentration of 5 μg/ml, and the cells were incubated at 37° C. for five minutes while a stable baseline at a wavelength of 550 nm was obtained. O2 --formation was initiated by the addition of 1 μM N-formylmethionylleucylphenylalanine (FMLP; Sigma Chemical Co., St. Louis, MO) or 1μg/ml phorbol myristate acetate (PMA; Sigma Chemical Co., St. Louis, MO). Cytochrome c reduction at 550nm was continuously monitored and maximal rate and extent of the reaction calculated.
Inhibition of protein isoprenylation can interfere with LMWG function without inhibiting overall cellular function (Maltese, supra (1990)). Since compactin inhibits at the enzymatic step preceding mevalonic acid synthesis, one should be able to reverse effects of compactin due specifically to inhibition of this pathway by addition of exogenous mevalonic acid.

[2] = system: HL-60 cells; assay: HL-60 cell viability by propidium iodide uptake (flow cytometry)
Protocol: as §1, with “The cells were treated with the indicated levels of compactin or lovastatin by addition of a 1,000-fold concentrated stock solution to the appropriate concentration on day 4 of differentiation.” left out
Cell viability was determined by uptake of propidium iodide (537-059; Calbiochem-Behring Corp., La Jolla, CA), detected from the emission fluorescence at 625/35 nm using a DM560 dichronic mirror (Krishan, J. Cell. Biol. 66: 188-192 (1975)). Expression of N-formyl peptide receptor was determined using fluorescein-labeled N-CHONle-Leu-Phe-Nle-Tyr-Lys (Molecular Probes, Inc., Eugene, OR) essentially by the method of Sklar and Finney (Sklar and Finney, Cytometry 3: 161-165 (1982)). Specificity of ligand binding was determined in the presence of 4 mM unlabeled T-boc peptide. CD14 expression was determined using monoclonal antibody 3C10 at a dilution of 1:1,000 (see Goyert and Ferrero, in Leucocyte Typing III: White Cell Differentiation Antigens, McMichael, ed., Oxford Univ. Press, NY, pp. 613-619 (1988)), with detection using a fluorescein-labeled secondary antibody. Flow cytometric analyses were performed on a FACSIV (registered trademark of Becton-Dickinson, San Jose, CA) equipped with a 2W argon laser (Coherent Inc., Palo Alto, collected in list mode and analyzed using the Consort 30 program (Becton-Dickinson, San Jose, CA) after collecting 10,000 events.

[3] = system: NADPH oxidase in HL-60 cells; assay: Inhibition of NADPH oxidase activation / O2- generation in HL-60 cells (stimulus not singled out); assay type: cell-based
Protocol: as §1, with “(1989)). O2 --formation by HL-60 cells was assessed by the SOD-sensitive reduction of cytochrome c. Cells were suspended at 1×10^7 /ml in Krebs-Ringer Hepes buffer with 5.5 mM glucose (KRHG) and 50-100μl of cells were added to a cuvette containing 100 μM cytochrome c (type III, Sigma Chemical Co., St. Louis, MO), ±300 μg/ml SOD (Sigma Chemical Co., St. Louis, MO) in 700-750 μl KRHG. Cytochalasin b (Sigma Chemical Co., St. Louis, MO) was added to a final concentration of 5 μg/ml, and the cells were incubated at 37° C. for five minutes while a stable baseline at a wavelength of 550 nm was obtained. O2 --formation was initiated by the addition of 1 μM N-formylmethionylleucylphenylalanine (FMLP; Sigma Chemical Co., St. Louis, MO) or 1μg/ml phorbol myristate acetate (PMA; Sigma Chemical Co., St. Louis, MO). Cytochrome c reduction at 550nm was continuously monitored and maximal rate and extent of the reaction calculated.” for “(1989)).”

dolichol
effect on compactin blockade of oxidase activity ([1]; 0.5 mM dolichol): no effect | block in NADPH oxidase activity / cellular responsiveness after supplementation [1]: apparently not overcome

CC(C)CCC[C@@H](C)[C@H]1CC[C@H]2[C@@H]3CC=C4C[C@@H](O)CC[C@]4(C)[C@H]3CC[C@]12C [cholesterol]
effect on compactin blockade of oxidase activity ([1]; 50 μg/ml LDL cholesterol): no effect | FMLP-stimulated O2- formation, Extent ([1]; 50 μg/ml cholesterol, no compactin, n = 2): 99 % of control | FMLP-stimulated O2- formation, Rate ([1]; 50 μg/μl cholesterol, no compactin, n = 2): 90 % of control | block in NADPH oxidase activity / cellular responsiveness after supplementation [1]: apparently not overcome

C[C@@](O)(CCO)CC(=O)O [mevalonic acid]
FMLP-stimulated O2- formation, Extent ([1]; 1 mM mevalonate, no compactin): 111 ± 8.0 % of control | FMLP-stimulated O2- formation, Rate ([1]; 1 mM mevalonate, no compactin): 120 ± 10 % of control | reversal of compactin inhibition of O2- formation ([1]; 1 mM mevalonic acid (as mevalonolactone), 4 or 10 μM compactin): nearly completely reversed | block in NADPH oxidase activity / cellular responsiveness after supplementation [1]: totally restored | effect on control rate or extent of O2- formation ([1]; no compactin): no consistent effect

COC1=C(OC)C(=O)C(C/C=C(\C)CC/C=C(\C)CC/C=C(\C)CC/C=C(\C)CC/C=C(\C)CC/C=C(\C)CC/C=C(\C)CC/C=C(\C)CC/C=C(\C)CCC=C(C)C)=C(C)C1=O [ubiquinone]
effect on compactin blockade of oxidase activity ([1]; 0.5 mM ubiquinone): no effect | block in NADPH oxidase activity / cellular responsiveness after supplementation [1]: apparently not overcome

CC[C@H](C)C(=O)O[C@H]1C[C@@H](C)C=C2C=C[C@H](C)[C@H](CC[C@@H]3C[C@@H](O)CC(=O)O3)[C@H]21 [lovastatin]
cell viability when inhibitor added at day 1 of differentiation [2]: somewhat decreased | inhibition of NADPH oxidase activation, effective concentrations [3]: micromolar concentrations | ability of HL-60 cells to generate O2- ([3]; response to receptor stimuli and downstream activators): markedly inhibited
